Patent US12324802B2, “Modulators of cystic fibrosis transmembrane conductance regulator” (Vertex Pharmaceuticals Incorporated, priority 2020, dated 2025)

Target: T1, CFTR (F508del/MF-HBE cells) (Homo sapiens, UniProt P13569, DEL508-508)
T1 construct: human bronchial epithelial (HBE) cells derived from CF subjects heterozygous for F508del and a minimal function CFTR mutation; endogenous in cells; host or cells: primary human bronchial epithelial cells from CF subjects (F508del/MF genotype)
Assay: Ussing chamber assay of CFTR-mediated short-circuit currents (identification of potentiator compounds)
Format: cell-based
Settings: CFTR-mediated ISC in F508del/MF-HBE cells; incubated 18-24 hours at 37° C. with 10 μM (14S)-8-[3-(2-{dispiro[2.0.2.1]heptan-7-yl}ethoxy)-1H-pyrazol-1-yl]-...-2,2,4-trione, 20% human serum
Description: Ussing Chamber Assay of CFTR-Mediated Short-Circuit Currents
Ussing chamber experiments were performed using human bronchial epithelial (HBE) cells derived from CF subjects heterozygous for F508del and a minimal function CFTR mutation (F508del/MF-HBE) and cultured as previously described (Neuberger T, Burton B, Clark H, Van Goor F Methods Mol Biol 2011:741:39-54). After four days the apical media was removed, and the cells were grown at an air liquid interface for >14 days prior to use.
To isolate the CFTR-mediated short-circuit (ISC) current, F508del/MF-HBE grown on Costar® Snapwell™ cell culture inserts were mounted in an Ussing chamber and the transepithelial ISC was measured under voltage-clamp recording conditions (Vhold=0 mV) at 37° C. The basolateral solution contained (in mM) 145 NaCl, 0.83 K2HPO4, 3.3 KH2PO4, 1.2 MgCl2, 1.2 CaCl2), 10 Glucose, 10 HEPES (pH adjusted to 7.4 with NaOH) and the apical solution contained (in mM) 145 NaGluconate, 1.2 MgCl2, 1.2 CaCl2), 10 glucose, 10 HEPES (pH adjusted to 7.4 with NaOH) and 30 μM amiloride to block the epithelial sodium channel. Forskolin (20 μM) was added to the apical surface to activate CFTR, followed by apical addition of a CFTR inhibitor cocktail consisting of BPO, GlyH-101 and CFTR inhibitor 172 (each at 20 μM final assay concentration) to specifically isolate CFTR currents. The CFTR-mediated ISC (μA/cm^2) for each condition was determined from the peak forskolin response to the steady-state current following inhibition.
Identification of Potentiator Compounds
The activity of the CFTR potentiator compounds on the CFTR-mediated ISC was determined in Ussing chamber studies as described above. The F508del/MF-HBE cell cultures were incubated with the potentiator compounds at a range of concentrations in combination with 10 μM (14S)-8-[3-(2-{dispiro[2.0.2.1]heptan-7-yl}ethoxy)-1H-pyrazol-1-yl]-12,12-dimethyl-2λ^6-thia-3,9,11,18,23-pentaazatetracyclo [17.3.1.111,14.05,10]tetracosa-1(22),5,7,9,19(23),20-hexaene-2,2,4-trione for 18-24 hours at 37° C. and in the presence of 20% human serum. The concentration of potentiator compounds and (14S)-8-[3-(2-{dispiro[2.0.2.1]heptan-7-yl}ethoxy)-1H-pyrazol-1-yl]-12,12-dimethyl-2λ^6-thia-3,9,11,18,23-pentaazatetracyclo [17.3.1.111,14.05,10]tetracosa-1(22),5,7,9,19(23),20-hexaene-2,2,4-trione used during the 18-24 hours incubations was kept constant throughout the Ussing chamber measurement of the CFTR-mediated ISC to ensure compounds were present throughout the entire experiment. The efficacy and potency of the putative F508del potentiators was compared to that of the known Vertex potentiator, ivacaftor (N-[2,4-bis(1,1-dimethylethyl)-5-hydroxyphenyl]-1,4-dihydro-4-oxoquinoline-3-carboxamide).

T1 sequence (P13569 with tags, fused parts or gaps DEL508-508): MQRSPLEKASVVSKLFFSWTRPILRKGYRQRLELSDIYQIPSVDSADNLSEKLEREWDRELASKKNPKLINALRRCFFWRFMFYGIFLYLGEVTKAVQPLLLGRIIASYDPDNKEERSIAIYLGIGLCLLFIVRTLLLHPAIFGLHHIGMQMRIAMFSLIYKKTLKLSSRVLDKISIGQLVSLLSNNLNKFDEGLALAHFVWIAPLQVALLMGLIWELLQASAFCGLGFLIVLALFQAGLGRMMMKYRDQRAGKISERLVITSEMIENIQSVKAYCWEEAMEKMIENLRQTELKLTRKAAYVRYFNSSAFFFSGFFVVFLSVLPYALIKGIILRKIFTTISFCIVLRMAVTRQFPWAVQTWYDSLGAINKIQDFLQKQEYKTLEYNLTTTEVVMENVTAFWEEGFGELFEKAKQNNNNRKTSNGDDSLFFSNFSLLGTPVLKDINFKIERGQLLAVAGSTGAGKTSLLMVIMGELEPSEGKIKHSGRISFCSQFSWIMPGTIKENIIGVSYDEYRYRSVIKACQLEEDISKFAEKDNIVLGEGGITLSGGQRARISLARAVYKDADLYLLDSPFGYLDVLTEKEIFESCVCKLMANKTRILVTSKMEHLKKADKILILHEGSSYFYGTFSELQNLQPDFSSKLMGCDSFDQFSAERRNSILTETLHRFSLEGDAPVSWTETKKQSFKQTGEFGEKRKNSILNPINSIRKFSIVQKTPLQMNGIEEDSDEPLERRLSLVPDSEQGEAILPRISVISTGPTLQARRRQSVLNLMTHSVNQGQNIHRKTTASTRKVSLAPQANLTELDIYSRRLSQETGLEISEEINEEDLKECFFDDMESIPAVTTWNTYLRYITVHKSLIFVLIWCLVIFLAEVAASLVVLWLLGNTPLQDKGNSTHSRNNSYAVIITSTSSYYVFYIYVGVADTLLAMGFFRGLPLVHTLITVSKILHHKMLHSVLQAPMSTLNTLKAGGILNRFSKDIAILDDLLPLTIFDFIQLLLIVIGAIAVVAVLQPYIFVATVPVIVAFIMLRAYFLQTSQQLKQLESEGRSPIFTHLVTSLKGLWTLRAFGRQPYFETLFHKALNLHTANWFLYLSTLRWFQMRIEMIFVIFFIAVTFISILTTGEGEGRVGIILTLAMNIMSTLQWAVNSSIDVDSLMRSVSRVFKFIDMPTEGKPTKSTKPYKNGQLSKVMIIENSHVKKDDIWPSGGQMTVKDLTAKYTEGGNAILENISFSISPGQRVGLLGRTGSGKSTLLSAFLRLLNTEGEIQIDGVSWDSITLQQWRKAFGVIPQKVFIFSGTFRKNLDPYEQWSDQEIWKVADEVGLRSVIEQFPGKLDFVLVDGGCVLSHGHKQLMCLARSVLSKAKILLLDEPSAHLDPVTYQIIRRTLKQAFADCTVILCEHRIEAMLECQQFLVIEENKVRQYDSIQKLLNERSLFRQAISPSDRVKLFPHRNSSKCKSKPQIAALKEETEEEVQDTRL

SMILES	EC50 [nM]
COCCN1CCCCCCC(O)(C(F)(F)F)C2=NN=C(O2)c2nc1c(C(F)(F)F)cc2N (single isomer, unassigned) [Compound 34, 17-amino-13-(2-methoxyethyl)-6,15-bis(trifluoromethyl)-19-oxa-3,4,13,18-tetrazatricyclo[12.3.1.12,5]nonadeca-1(18),2,4,14,16-pentaen-6-ol]	< 500
Nc1cc(C(F)(F)F)c2nc1-c1nnc(o1)C(O)(C(F)(F)F)CCCC(=O)N1CCN2CC1 (single isomer, unassigned) [Compound 37, 5-amino-11-hydroxy-3,11-bis(trifluoromethyl)-21-oxa-1,8,9,16,22-pentaazatetracyclo[14.2.2.12,6.17,10]docosa-2,4,6(22),7,9-pentaen-15-one]	< 500
Nc1cc(C(F)(F)F)c2nc1-c1nnc(o1)C(O)(C(F)(F)F)CCCC(=O)N1CCN2CC1 (single isomer, unassigned) [Compound 38, 5-amino-11-hydroxy-3,11-bis(trifluoromethyl)-21-oxa-1,8,9,16,22-pentaazatetracyclo[14.2.2.12,6.17,10]docosa-2,4,6(22),7,9-pentaen-15-one]	> 1000
CN1CCCCCCC(O)(C(F)(F)F)C2=NN=C(O2)c2nc1c(S(C)(=O)=O)cc2N (single isomer, unassigned) [Compound 39, 17-amino-13-methyl-15-methylsulfonyl-6-(trifluoromethyl)-19-oxa-3,4,13,18-tetrazatricyclo[12.3.1.12,5]nonadeca-1(18),2,4,14,16-pentaen-6-ol]	< 500
CN1CCCCCCC(O)(C(F)(F)F)C2=NN=C(O2)c2nc1c(S(C)(=O)=O)cc2N (single isomer, unassigned) [Compound 40, 17-amino-13-methyl-15-methylsulfonyl-6-(trifluoromethyl)-19-oxa-3,4,13,18-tetrazatricyclo[12.3.1.12,5]nonadeca-1(18),2,4,14,16-pentaen-6-ol]	500 to 1000
Nc1cc(C(F)(F)F)c2nc1-c1nnc(o1)C(O)(C(F)(F)F)CCCCCCN2CCO (single isomer, unassigned) [Compound 41, 17-amino-13-(2-hydroxyethyl)-6,15-bis(trifluoromethyl)-19-oxa-3,4,13,18-tetrazatricyclo[12.3.1.12,5]nonadeca-1(18),2,4,14,16-pentaen-6-ol]	< 500
CN1CCN(C)c2nc(c(N)cc2C(F)(F)F)C2=NN=C(O2)C(O)(C(F)(F)F)CCC1=O (single isomer, unassigned) [Compound 44, 17-amino-6-hydroxy-10,13-dimethyl-6,15-bis(trifluoromethyl)-19-oxa-3,4,10,13,18-pentazatricyclo[12.3.1.12,5]nonadeca-1(18),2,4,14,16-pentaen-9-one]	500 to 1000
CCOC(=O)CN1CCCCCCC(O)(C(F)(F)F)C2=NN=C(O2)c2nc1c(C(F)(F)F)cc2N (single isomer, unassigned) [Compound 46, ethyl 2-[17-amino-6-hydroxy-6,15-bis(trifluoromethyl)-19-oxa-3,4,13,18-tetrazatricyclo[12.3.1.12,5]nonadeca-1(18),2,4,14,16-pentaen-13-yl]acetate]	< 500
CNC(=O)CN1CCCCCCC(O)(C(F)(F)F)C2=NN=C(O2)c2nc1c(C(F)(F)F)cc2N (single isomer, unassigned) [Compound 48, 2-[17-amino-6-hydroxy-6,15-bis(trifluoromethyl)-19-oxa-3,4,13,18-tetrazatricyclo[12.3.1.12,5]nonadeca-1(18),2,4,14,16-pentaen-13-yl]-N-methyl-acetamide]	< 500
Nc1cc(C(F)(F)F)c2nc1-c1nnc(o1)C(O)(C(F)(F)F)CCCCC[C@@H]1COCCN21 (single isomer, unassigned) [Compound 54]	< 500
Nc1cc(C(F)(F)F)c2nc1-c1nnc(o1)C(O)(C(F)(F)F)CCCCC[C@@H]1COCCN21 (single isomer, unassigned) [Compound 55]	> 1000
Nc1cc(C(F)(F)F)c2nc1-c1nnc(o1)C(O)(C(F)(F)F)CCCCCCN2 (single isomer, unassigned) [Compound 56, 17-amino-6,15-bis(trifluoromethyl)-19-oxa-3,4,13,18-tetrazatricyclo[12.3.1.12,5]nonadeca-1(18),2,4,14,16-pentaen-6-ol]	< 500

The next lines start with the values.

EC50 [nM]	SMILES
< 500	Nc1cc(C(F)(F)F)c2nc1-c1nnc(o1)C(O)(C(F)(F)F)CCCCCCC1CCCN21 (single isomer, unassigned) [Compound 23, 21-amino-6,19-bis(trifluoromethyl)-23-oxa-3,4,17,22-tetraazatetracyclo[16.3.1.12,5.013,17]tricosa-1(22),2,4,18,20-pentaen-6-ol]
< 500	Nc1cc(C(F)(F)F)c2nc1-c1nnc(o1)C(O)(C(F)(F)F)CCCCCCC1CCCN21 (single isomer, unassigned) [Compound 24, 21-amino-6,19-bis(trifluoromethyl)-23-oxa-3,4,17,22-tetraazatetracyclo[16.3.1.12,5.013,17]tricosa-1(22),2,4,18,20-pentaen-6-ol]
< 500	Nc1cc(C(F)(F)F)c2nc1-c1nnc(o1)C(O)(C(F)(F)F)CCCCCCC1CCCN21 (single isomer, unassigned) [Compound 25, 21-amino-6,19-bis(trifluoromethyl)-23-oxa-3,4,17,22-tetraazatetracyclo[16.3.1.12,5.013,17]tricosa-1(22),2,4,18,20-pentaen-6-ol]
> 1000	Nc1cc(C(F)(F)F)c2nc1-c1nnc(o1)C(O)(C(F)(F)F)CCCCCCC1CCCN21 (single isomer, unassigned) [Compound 26, 21-amino-6,19-bis(trifluoromethyl)-23-oxa-3,4,17,22-tetraazatetracyclo[16.3.1.12,5.013,17]tricosa-1(22),2,4,18,20-pentaen-6-ol]
< 500	CC1(C)CC2CCCCCC(O)(C(F)(F)F)C3=NN=C(O3)c3nc(c(C(F)(F)F)cc3N)N2C1 (single isomer, unassigned) [Compound 29, 20-amino-14,14-dimethyl-6,18-bis(trifluoromethyl)-22-oxa-3,4,16,21-tetraazatetracyclo[15.3.1.12,5.012,16]docosa-1(21),2,4,17,19-pentaen-6-ol]
< 500	Nc1cc(C(F)(F)F)c2nc1-c1nnc(o1)C(O)(C(F)(F)F)CCCC[C@@H]1CCCN21 (single isomer, unassigned) [Compound 32]
> 1000	Nc1cc(C(F)(F)F)c2nc1-c1nnc(o1)C(O)(C(F)(F)F)CCCC[C@@H]1CCCN21 (single isomer, unassigned) [Compound 33]
> 1000	COCCN1CCCCCCC(O)(C(F)(F)F)C2=NN=C(O2)c2nc1c(C(F)(F)F)cc2N (single isomer, unassigned) [Compound 35, 17-amino-13-(2-methoxyethyl)-6,15-bis(trifluoromethyl)-19-oxa-3,4,13,18-tetrazatricyclo[12.3.1.12,5]nonadeca-1(18),2,4,14,16-pentaen-6-ol]
< 500	CC1(O)CCCCC[C@@H]2CCCN2c2nc(c(N)cc2C(F)(F)F)C2=NN=C1O2 (single isomer, unassigned) [Compound 45]
< 500	Cc1cc(N)c2nc1N1CCC[C@H]1CCCCCC(O)(C(F)(F)F)C1=NN=C2O1 (single isomer, unassigned) [Compound 51]
< 500	CC(C)N1CCCCCCC(O)(C(F)(F)F)C2=NN=C(O2)c2nc1c(C(F)(F)F)cc2N (single isomer, unassigned) [Compound 52, 17-amino-13-isopropyl-6,15-bis(trifluoromethyl)-19-oxa-3,4,13,18-tetrazatricyclo[12.3.1.12,5]nonadeca-1(18),2,4,14,16-pentaen-6-ol]
> 1000	CC(C)N1CCCCCCC(O)(C(F)(F)F)C2=NN=C(O2)c2nc1c(C(F)(F)F)cc2N (single isomer, unassigned) [Compound 53, 17-amino-13-isopropyl-6,15-bis(trifluoromethyl)-19-oxa-3,4,13,18-tetrazatricyclo[12.3.1.12,5]nonadeca-1(18),2,4,14,16-pentaen-6-ol]
